Measured values as given in PMC5218480 (PLoS ONE, 2017).

System: MV-4-11 cells
Assay: Gene expression microarray analysis (Affymetrix PrimeView) and GSEA
Type: cell-based, human
Set-up: RFU PODN (11730768_x_at) / Fold change /veh PODN (11730768_x_at) / RFU LINC00158 (11744669_a_at) / Fold change /veh LINC00158 (11744669_a_at) / RFU DUSP10 (11751237_a_at) / Fold change /veh DUSP10 (11751237_a_at) / RFU ID3 (11757404_x_at) / Fold change /veh ID3 (11757404_x_at) / RFU PLEKHG5 (11737974_s_at) / Fold change /veh PLEKHG5 (11737974_s_at) / RFU LRRC4B (11730491_at) / Fold change /veh LRRC4B (11730491_at) / RFU GIMAP4 (11747438_a_at) / Fold change /veh GIMAP4 (11747438_a_at) / RFU KRT8 (11758183_x_at) / Fold change /veh KRT8 (11758183_x_at) / RFU CNN1 (11734310_a_at) / Fold change /veh CNN1 (11734310_a_at) / RFU VPS37D (11726825_at) / Fold change /veh VPS37D (11726825_at) / RFU C10orf10 (11716522_x_at) / Fold change /veh C10orf10 (11716522_x_at) / RFU KIR2DL2 /// KIR2DL4 /// KIR2DL5A /// KIR2DL5B /// KIR2DS1 /// KIR2DS2 /// KIR2DS3 /// KIR2DS4 /// KIR3DL3 /// KIR3DL3 /// KIR3DS1 (11738374_at) / Fold change /veh KIR2DL2 /// KIR2DL4 /// KIR2DL5A /// KIR2DL5B /// KIR2DS1 /// KIR2DS2 /// KIR2DS3 /// KIR2DS4 /// KIR3DL3 /// KIR3DL3 /// KIR3DS1 (11738374_at) / RFU C1QL1 (11718748_at) / Fold change /veh C1QL1 (11718748_at) / RFU TMPRSS4 (11747572_a_at) / Fold change /veh TMPRSS4 (11747572_a_at) / RFU HAMP (11756126_x_at) / Fold change /veh HAMP (11756126_x_at) / RFU RNFT2 (11725882_a_at) / Fold change /veh RNFT2 (11725882_a_at) / RFU NR4A2 (11747474_a_at) / Fold change /veh NR4A2 (11747474_a_at) / RFU ABCC12 (11746883_a_at) / Fold change /veh ABCC12 (11746883_a_at) / RFU TMEM136 (11760407_x_at) / Fold change /veh TMEM136 (11760407_x_at) / RFU CLDN22 /// WWC2 (11732394_at) / Fold change /veh CLDN22 /// WWC2 (11732394_at) / RFU HLA-DPB1 (11760878_x_at) / Fold change /veh HLA-DPB1 (11760878_x_at) / RFU SPINT1 (11716480_a_at) / Fold change /veh SPINT1 (11716480_a_at) / RFU GAP43 (11754022_s_at) / Fold change /veh GAP43 (11754022_s_at) / RFU A4GNT (11735810_at) / Fold change /veh A4GNT (11735810_at) / RFU PRB3 (11715151_x_at) / Fold change /veh PRB3 (11715151_x_at) / RFU TUBB4B (11761932_at) / Fold change /veh TUBB4B (11761932_at) / RFU CAPN14 (11732068_a_at) / Fold change /veh CAPN14 (11732068_a_at) / RFU TMCC2 (11721928_a_at) / Fold change /veh TMCC2 (11721928_a_at) / RFU IRGQ (11745062_a_at) / Fold change /veh IRGQ (11745062_a_at) / RFU FAM174B (11720279_a_at) / Fold change /veh FAM174B (11720279_a_at) / RFU TMPRSS4 (11748680_a_at) / Fold change /veh TMPRSS4 (11748680_a_at) / RFU FAM212B (11763350_a_at) / Fold change /veh FAM212B (11763350_a_at) / RFU PLEKHG5 (11743358_a_at) / Fold change /veh PLEKHG5 (11743358_a_at) / RFU ZSCAN30 (11745921_a_at) / Fold change /veh ZSCAN30 (11745921_a_at) / RFU CMKLR1 (11741424_a_at) / Fold change /veh CMKLR1 (11741424_a_at) / RFU LOC101060620 /// MAPK8IP1 (11723275_at) / Fold change /veh LOC101060620 /// MAPK8IP1 (11723275_at) / RFU SPTSSB (11747773_x_at) / Fold change /veh SPTSSB (11747773_x_at) / RFU PRSS12 (11739890_at) / Fold change /veh PRSS12 (11739890_at) / RFU BIN1 (11741810_x_at) / Fold change /veh BIN1 (11741810_x_at) / RFU WNT11 (11732464_a_at) / Fold change /veh WNT11 (11732464_a_at) / RFU C10orf10 (11716521_a_at) / Fold change /veh C10orf10 (11716521_a_at) / RFU C5orf56 (11738089_at) / Fold change /veh C5orf56 (11738089_at) / RFU CYB561 (11721691_x_at) / Fold change /veh CYB561 (11721691_x_at) / RFU ANKRD19P (11752326_a_at) / Fold change /veh ANKRD19P (11752326_a_at) / RFU OR2T12 /// OR2T33 /// OR2T8 (11738714_s_at) / Fold change /veh OR2T12 /// OR2T33 /// OR2T8 (11738714_s_at) / RFU VCAN (11748164_a_at) / Fold change /veh VCAN (11748164_a_at) / RFU JSRP1 (11732532_at) / Fold change /veh JSRP1 (11732532_at) / RFU KRTAP10-11 (11738290_x_at) / Fold change /veh KRTAP10-11 (11738290_x_at) / RFU MYO3A (11730013_a_at) / Fold change /veh MYO3A (11730013_a_at) / RFU EBF3 (11725865_a_at) / Fold change /veh EBF3 (11725865_a_at) / RFU CAMK2N1 (11719241_x_at) / Fold change /veh CAMK2N1 (11719241_x_at) / RFU C5orf56 (11738088_a_at) / Fold change /veh C5orf56 (11738088_a_at) / RFU OLFML3 (11715873_a_at) / Fold change /veh OLFML3 (11715873_a_at) / RFU LOC100653217 /// NTM (11731650_a_at) / Fold change /veh LOC100653217 /// NTM (11731650_a_at) / RFU MAPK11 (11762145_a_at) / Fold change /veh MAPK11 (11762145_a_at) / RFU FIZ1 (11724087_x_at) / Fold change /veh FIZ1 (11724087_x_at) / RFU OASL (11726364_x_at) / Fold change /veh OASL (11726364_x_at) / RFU SOX15 (11748057_x_at) / Fold change /veh SOX15 (11748057_x_at) / RFU CD79A (11719716_a_at) / Fold change /veh CD79A (11719716_a_at) / RFU HIST1H1D (11736915_at) / Fold change /veh HIST1H1D (11736915_at) / RFU CASKIN2 (11723855_a_at) / Fold change /veh CASKIN2 (11723855_a_at) / RFU LOC730098 (11760151_x_at) / Fold change /veh LOC730098 (11760151_x_at) / RFU OR4N2 (11742367_at) / Fold change /veh OR4N2 (11742367_at) / RFU PRRT2 (11749266_a_at) / Fold change /veh PRRT2 (11749266_a_at) / RFU SNX32 (11753110_a_at) / Fold change /veh SNX32 (11753110_a_at) / RFU CDHR5 (11726645_a_at) / Fold change /veh CDHR5 (11726645_a_at) / RFU RCAN1 (11760418_a_at) / Fold change /veh RCAN1 (11760418_a_at) / RFU FAM167A (11723789_a_at) / Fold change /veh FAM167A (11723789_a_at) / RFU FAM26E (11764081_at) / Fold change /veh FAM26E (11764081_at) / RFU ISYNA1 (11749810_s_at) / Fold change /veh ISYNA1 (11749810_s_at) / RFU ACY1 (11761880_at) / Fold change /veh ACY1 (11761880_at) / RFU 11764098_at / Fold change /veh 11764098_at / RFU SAMD14 (11745864_x_at) / Fold change /veh SAMD14 (11745864_x_at) / RFU NPB (11741838_a_at) / Fold change /veh NPB (11741838_a_at) / RFU TMPRSS6 (11731388_a_at) / Fold change /veh TMPRSS6 (11731388_a_at) / RFU KRTAP10-2 (11738614_at) / Fold change /veh KRTAP10-2 (11738614_at) / RFU ARHGAP8 /// PRR5-ARHGAP8 (11727945_x_at) / Fold change /veh ARHGAP8 /// PRR5-ARHGAP8 (11727945_x_at) / RFU KRTAP5-7 /// NADSYN1 (11734609_at) / Fold change /veh KRTAP5-7 /// NADSYN1 (11734609_at) / RFU RASL12 (11751679_a_at) / Fold change /veh RASL12 (11751679_a_at) / RFU CDKN2B (11736163_a_at) / Fold change /veh CDKN2B (11736163_a_at) / RFU PRF1 (11729649_at) / Fold change /veh PRF1 (11729649_at) / RFU, ZNF638 /// ZNF638-IT1 / Fold change vs veh, ZNF638 /// ZNF638-IT1 / RFU, PANK3 / Fold change vs veh, PANK3 / RFU, SH3YL1 / Fold change vs veh, SH3YL1 / RFU, ZEB2 / Fold change vs veh, ZEB2 / RFU, NRIP1 / Fold change vs veh, NRIP1 / RFU, PTTG1IP / Fold change vs veh, PTTG1IP / RFU, CAPN2 / Fold change vs veh, CAPN2 / RFU, MED14 / Fold change vs veh, MED14 / RFU, SNORA58 / Fold change vs veh, SNORA58 / RFU, C1orf63 / Fold change vs veh, C1orf63 / RFU, LRRFIP1 / Fold change vs veh, LRRFIP1 / RFU, NDUFAF7 / Fold change vs veh, NDUFAF7 / RFU, SLC12A2 / Fold change vs veh, SLC12A2 / RFU, IBTK / Fold change vs veh, IBTK / RFU, ESF1 / Fold change vs veh, ESF1 / Fold change vs veh, TMEM50B / RFU, TAOK1 / Fold change vs veh, TAOK1 / RFU, ACBD3 / Fold change vs veh, ACBD3 / RFU, TMA16 / Fold change vs veh, TMA16 / RFU, RWDD3 / Fold change vs veh, RWDD3 / RFU, BCAT1 / Fold change vs veh, BCAT1 / RFU, EDEM3 / Fold change vs veh, EDEM3 / RFU, TMEM33 / Fold change vs veh, TMEM33 / RFU, WDR75 / Fold change vs veh, WDR75 / RFU, AHCTF1 / Fold change vs veh, AHCTF1 / RFU, TFRC / Fold change vs veh, TFRC / RFU, ZDHHC17 / Fold change vs veh, ZDHHC17 / RFU, NOM1 / Fold change vs veh, NOM1 / RFU, ARL8B / Fold change vs veh, ARL8B / RFU, ZBTB11 / Fold change vs veh, ZBTB11 / RFU, TAMM41 / Fold change vs veh, TAMM41 / RFU, KIAA1704 /// LOC100996395 / Fold change vs veh, KIAA1704 /// LOC100996395 / RFU, ING1 / Fold change vs veh, ING1 / RFU, TRMT61B / Fold change vs veh, TRMT61B / RFU, FUBP3 / Fold change vs veh, FUBP3 / RFU, TP53 / Fold change vs veh, TP53 / RFU, TNKS2 / Fold change vs veh, TNKS2 / RFU, ZFP14 / Fold change vs veh, ZFP14 / RFU, ACTR2 / Fold change vs veh, ACTR2 / RFU, PPP3R1 / Fold change vs veh, PPP3R1 / RFU, PIK3R1 / Fold change vs veh, PIK3R1 / RFU, HNRNPA1 / Fold change vs veh, HNRNPA1 / RFU, RNF170 / Fold change vs veh, RNF170 / RFU, ZNF28 / Fold change vs veh, ZNF28 / RFU, RNGTT / Fold change vs veh, RNGTT / RFU, OGT / Fold change vs veh, OGT / RFU, BRD1 / Fold change vs veh, BRD1 / RFU, MARS / Fold change vs veh, MARS / RFU, ZNF655 / Fold change vs veh, ZNF655 / RFU, FAHD1 / Fold change vs veh, FAHD1 / RFU, BDP1 / Fold change vs veh, BDP1 / RFU, LRRCC1 / Fold change vs veh, LRRCC1 / RFU, ARID1A / Fold change vs veh, ARID1A / RFU, ZNF146 / Fold change vs veh, ZNF146 / RFU, ZNF330 / Fold change vs veh, ZNF330 / RFU, GPN3 / Fold change vs veh, GPN3 / RFU, C9orf123 / Fold change vs veh, C9orf123 / RFU, N4BP2L2 / Fold change vs veh, N4BP2L2 / RFU, ARFIP1 / Fold change vs veh, ARFIP1 / RFU, FAM179B / Fold change vs veh, FAM179B / RFU, BCL10 / Fold change vs veh, BCL10 / RFU, UHRF1BP1L / Fold change vs veh, UHRF1BP1L / RFU, BET1 / Fold change vs veh, BET1 / RFU, CNOT2 / Fold change vs veh, CNOT2 / RFU, ZNF268 / Fold change vs veh, ZNF268 / Fold change vs veh, ZNF507 / RFU, DGCR2 / Fold change vs veh, DGCR2 / RFU, WDSUB1 / Fold change vs veh, WDSUB1 / Fold change vs veh, HSP90B1 /// MIR3652 / RFU, ADSS / Fold change vs veh, ADSS / RFU, GK / Fold change vs veh, GK / RFU, ZNF148 / Fold change vs veh, ZNF148 / RFU, TAF9 / Fold change vs veh, TAF9 / RFU, SLC1A5 / Fold change vs veh, SLC1A5 / RFU, SLMO2 / Fold change vs veh, SLMO2 / RFU, ABCC4 / Fold change vs veh, ABCC4 / RFU, LOC101060439 /// RAP1B / Fold change vs veh, LOC101060439 /// RAP1B / RFU, RFX7 / Fold change vs veh, RFX7 / RFU, GTPBP10 / Fold change vs veh, GTPBP10 / RFU, CNEP1R1 / Fold change vs veh, CNEP1R1 / RFU, BIVM-ERCC5 /// ERCC5 / Fold change vs veh, BIVM-ERCC5 /// ERCC5 / RFU, ILF3 / Fold change vs veh, ILF3 / RFU 11762660_at / Fold change /veh 11762660_at / RFU VCAN (11757783_s_at) / Fold change /veh VCAN (11757783_s_at) / RFU DDX43 (11728927_at) / Fold change /veh DDX43 (11728927_at) / RFU KRT8 (11758188_x_at) / Fold change /veh KRT8 (11758188_x_at) / RFU NKD1 (11759106_at) / Fold change /veh NKD1 (11759106_at) / RFU SRD5A1 (11742802_a_at) / Fold change /veh SRD5A1 (11742802_a_at) / RFU TPSAB1 /// TPSB2 (11721975_s_at) / Fold change /veh TPSAB1 /// TPSB2 (11721975_s_at) / RFU GSTM3 (11746129_a_at) / Fold change /veh GSTM3 (11746129_a_at) / RFU IL23R (11737362_x_at) / Fold change /veh IL23R (11737362_x_at) / RFU TMEM51 (11727254_a_at) / Fold change /veh TMEM51 (11727254_a_at) / RFU PIWIL2 (11732686_x_at) / Fold change /veh PIWIL2 (11732686_x_at) / RFU ORM1 (11744905_x_at) / Fold change /veh ORM1 (11744905_x_at) / RFU CCDC152 (11743942_at) / Fold change /veh CCDC152 (11743942_at) / RFU ECM1 (11717891_a_at) / Fold change /veh ECM1 (11717891_a_at) / RFU IL23R (11748794_a_at) / Fold change /veh IL23R (11748794_a_at) / RFU TNFAIP8L3 (11732012_x_at) / Fold change /veh TNFAIP8L3 (11732012_x_at) / RFU MBOAT4 (11741988_at) / Fold change /veh MBOAT4 (11741988_at) / RFU 11764193_at / Fold change /veh 11764193_at / RFU TMEM53 (11763286_at) / Fold change /veh TMEM53 (11763286_at) / RFU MAGEB2 (11727129_at) / Fold change /veh MAGEB2 (11727129_at) / RFU TMEM200A (11744735_a_at) / Fold change /veh TMEM200A (11744735_a_at) / RFU CCDC152 (11751479_a_at) / Fold change /veh CCDC152 (11751479_a_at) / RFU FAM211A (11726209_a_at) / Fold change /veh FAM211A (11726209_a_at) / RFU RGS16 (11746705_a_at) / Fold change /veh RGS16 (11746705_a_at) / RFU VCAN (11755009_s_at) / Fold change /veh VCAN (11755009_s_at) / RFU RHOB (11743442_s_at) / Fold change /veh RHOB (11743442_s_at) / RFU RGS16 (11720943_a_at) / Fold change /veh RGS16 (11720943_a_at) / RFU RGS16 (11720944_at) / Fold change /veh RGS16 (11720944_at) / RFU, VPS4B / Fold change vs veh, VPS4B / RFU, CREB1 / Fold change vs veh, CREB1 / RFU, DNAJC13 / Fold change vs veh, DNAJC13 / RFU, GNAQ / Fold change vs veh, GNAQ / RFU, CDK5R1 / Fold change vs veh, CDK5R1 / RFU, ZRANB3 / Fold change vs veh, ZRANB3 / RFU, CUL4A / Fold change vs veh, CUL4A / RFU, CCNY / Fold change vs veh, CCNY / RFU, UFL1 / Fold change vs veh, UFL1 / RFU, COG3 / Fold change vs veh, COG3 / RFU, DIAPH2 / Fold change vs veh, DIAPH2 / RFU, SKA2 / Fold change vs veh, SKA2 / RFU, AFF3 / Fold change vs veh, AFF3 / RFU, LMF1 / Fold change vs veh, LMF1 / RFU, IPO11 / Fold change vs veh, IPO11 / RFU, DFFB / Fold change vs veh, DFFB / RFU, FOXP1 / Fold change vs veh, FOXP1 / RFU, CARD8 / Fold change vs veh, CARD8 / RFU, STRN3 / Fold change vs veh, STRN3 / RFU, ADK / Fold change vs veh, ADK / RFU, RASSF2 / Fold change vs veh, RASSF2 / RFU, WIPF1 / Fold change vs veh, WIPF1 / RFU, LARP1B / Fold change vs veh, LARP1B / RFU, RASA1 / Fold change vs veh, RASA1 / RFU, RB1 / Fold change vs veh, RB1 / RFU, PPFIA1 / Fold change vs veh, PPFIA1 / RFU, MAT2A / Fold change vs veh, MAT2A / RFU, CCT5 / Fold change vs veh, CCT5 / RFU, WDR92 / Fold change vs veh, WDR92 / RFU, CUX1 / Fold change vs veh, CUX1 / RFU, TTC7A / Fold change vs veh, TTC7A / RFU, TMEM135 / Fold change vs veh, TMEM135 / RFU, DEPTOR / Fold change vs veh, DEPTOR / RFU, CPM / Fold change vs veh, CPM / RFU, DNAJB6 / Fold change vs veh, DNAJB6 / RFU, CACNA2D3 / Fold change vs veh, CACNA2D3 / RFU, DTX4 / Fold change vs veh, DTX4 / RFU, TFCP2 / Fold change vs veh, TFCP2 / RFU, GMCL1 /// GMCL1P1 / Fold change vs veh, GMCL1 /// GMCL1P1 / RFU, AEBP2 / Fold change vs veh, AEBP2 / RFU, SNHG1 /// SNORD22 /// SNORD25 /// SNORD26 /// SNORD27 /// SNORD28 /// SNORD29 /// SNORD31 / Fold change vs veh, SNHG1 /// SNORD22 /// SNORD25 /// SNORD26 /// SNORD27 /// SNORD28 /// SNORD29 /// SNORD31 / Fold change (Aza/veh), C12orf56 (ProbeSet 11735607_a_at) / Fold change (ACY-1035/veh), C12orf56 (ProbeSet 11735607_a_at) / Fold change (Aza/veh), FGFR1OP (ProbeSet 11751329_s_at) / Fold change (ACY-1035/veh), FGFR1OP (ProbeSet 11751329_s_at) / Fold change (Aza/veh), VPS36 (ProbeSet 11739960_a_at) / Fold change (ACY-1035/veh), VPS36 (ProbeSet 11739960_a_at) / RFU SYPL1 (11715823_x_at) / Fold change /veh SYPL1 (11715823_x_at) / RFU IGFBP7 (11715501_s_at) / Fold change /veh IGFBP7 (11715501_s_at) / RFU REEP3 (11722064_at) / Fold change /veh REEP3 (11722064_at) / RFU IGLL1 (11728026_x_at) / Fold change /veh IGLL1 (11728026_x_at): dose or concentration left out as unconfirmed
Details: ProbeSet 11727641_at; LIST B

Nc1ccc(-c2cccs2)cc1NC(=O)c1ccc2c(c1)cc(C1CC1)n2CCN1CCOCC1 [ACY-1035]
RFU, NOM1: 160.01 RFU
